The target in one data set is T1, rat GnRH receptor (Rattus norvegicus, UniProt P30969).
T1 construct: Anterior pituitaries were removed from 40 Whister rats (8 weeks old, male); from tissue; host or cells: rat anterior pituitary membrane fraction
T1 sequence (P30969 1-327): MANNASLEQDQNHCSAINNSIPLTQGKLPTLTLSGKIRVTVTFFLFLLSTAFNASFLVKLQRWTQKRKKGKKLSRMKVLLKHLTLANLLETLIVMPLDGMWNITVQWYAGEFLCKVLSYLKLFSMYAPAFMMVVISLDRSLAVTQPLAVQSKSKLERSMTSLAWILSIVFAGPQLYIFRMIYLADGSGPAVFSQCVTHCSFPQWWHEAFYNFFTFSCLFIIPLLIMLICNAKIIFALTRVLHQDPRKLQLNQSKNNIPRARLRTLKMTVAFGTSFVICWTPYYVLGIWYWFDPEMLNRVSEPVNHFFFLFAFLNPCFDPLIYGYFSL
Put plainly: 125I-leuprorelin binding inhibition, rat anterior pituitary membrane fraction. To be noted: 1 μM compound, 4° C., 90 minutes, read-out: Binding inhibiting rate (%) Rat (1 μM).

Data set [1] in a line: Administration to premenopausal healthy females for 14 days. Type of data set: in vivo, human. To be noted: 32 premenopausal healthy females (20 to 45 years old), 1 to 25 mg/day for 14 days. Here is the method:
To 32 premenopausal healthy females (20 years old to 45 years old), 1 to 25 mg/day of the compound of Reference Example 7 was administered for 14 days. As a result, the serum estradiol concentration was reduced, but hot flash was not observed.

Results on two compounds are retold here after US20050250793A1, “Preventives/remedies for hot flash” (priority 2002, published 2005).

Each structure is given as a SMILES string. Structures can show the parent of a compound that is named as a salt.

On to `CONC(=O)Nc1ccc(-c2sc3c(c2CN(C)Cc2ccccc2)c(=O)n(-c2ccccc2)c(=O)n3Cc2c(F)cccc2F)cc1` [Reference Example 8, 5-(N-benzyl-N-methylaminomethyl)-1-(2,6-difluorobenzyl)-6-[4-(3-methoxyureido)phenyl]-3-phenylthieno[2,3-d]pyrimidine-2,4(1H, 3H)-dione hydrochloride], for which the inhibition at 1 µM at rat GnRH receptor came to 27%.

Consider `CONC(=O)Nc1ccc(-c2sc3c(c2CN(C)Cc2ccccc2)c(=O)n(-c2ccccc2)c(=O)n3Cc2c(F)cccc2F)cc1` [Reference Example 7, 5-(N-benzyl-N-methylaminomethyl)-1-(2,6-difluorobenzyl)-6-[4-(3-methoxyureido)phenyl]-3-phenylthieno[2,3-d]pyrimidine-2,4(1H, 3H)-dione], for which, in data set [1], the hot flash entry is “not observed” and the serum estradiol concentration result was “reduced”.
